Assay results published in paper PMC9071858, “Comparative Pharmacokinetics of Seven Major Compounds in Normal and Atherosclerosis Mice after Oral Administration of Simiao Yong'an Decoction” (Evidence-based Complementary and Alternative Medicine : eCAM, 2022).

Key:
[1] = Pharmacokinetic study in atherosclerosis (AS) model ApoE−/− mice after oral administration of SMYAD; type: in vivo, mouse
Procedure: (§1) Male C57BL/6J mice and ApoE^−/− mice on a C57BL/6 background (7 weeks old, 18–22 g) were purchased from Beijing Vital River Laboratory Animal Technology Co., Ltd. (Beijing, China, Certificate No.: SCXK (Jing) 2016-0006). All the mice were kept in an SPF animal house (Dongzhimen Hospital Affiliated to Beijing University of Chinese Medicine, Certificate No.: SYXK (Jing) 2015-0001) with food and water freely available, 12 h light/dark, and environmental conditions of 22°C–24°C, 50% relative humidity. All protocols of animal experiments were performed in accordance with the National Guidelines for Laboratory Animal Welfare and were approved by the Animal Ethics Committee of Beijing University of Chinese Medicine (NO. BUCM-4-2015071701-3001). High-fat feeding (containing 15% fat and 0.25% cholesterol) was provided by Beijing HFK bioscience CO., LTD. (Beijing, China, Certificate No.: SCXK (Jing) 2014-0018).
The AS model was established by a high-fat diet and perivascular carotid collar placement (PCCP) surgery in the ApoE^−/− mice. After a 7-day adaptive feeding, the mice were given a high-fat diet for 2 weeks; before anesthesia, all ApoE^−/− mice were fasted for 12 hours. During the surgery, the right common carotid artery was exposed, and a silicone cannula (length: 2.5 mm, inner diameter: 0.3 mm) was fixed around the carotid artery (external diameter: about 0.5 mm). Penicillin was injected intraperitoneally for 3 days after surgery to prevent infection. High-fat diet continued for 8 weeks after surgery to establish AS model. Biochemical assays and hematoxylin and eosin (HE) staining were used to evaluate whether AS model was successfully established.
(§2) After successful induction of AS model, SMYAD was administered to NC and AS mice by intragastric gavage at the crude drug dose of 35 g/kg/d for seven days. Blood samples were collected from each mouse in heparinized tubes via the postorbital venous plexus veins at 0, 0.25, 0.5, 1, 2, 4, 6, 8, 10, 12, 18, and 24 h after seven days of drug administration. Then blood samples were immediately centrifuged at 3500 rpm at 4°C for 10 min and the plasma was stored at −80°C until use.
(§3) Each plasma sample (100 μL) was mixed with a threefold volume of methanol and 25 μL IS in a 1.5 mL EP tube. Then the mixture was vortexed for 100 seconds and centrifuged at 12,000 rpm for 10 min at 4°C. The supernatant was transferred to another EP tube and evaporated to dryness under a nitrogen vacuum. The residue was reconstituted with 100 μL of 50% methanol and centrifuged at 15,000 rpm for 15 min. Then the supernatant was transferred to sample vials for the LC-MS analysis.
(§4) A Vanquish UHPLC™ system (Thermo Fisher Scientific Inc., USA) was used for the analysis. Samples were separated on an Atlantis T3 column (4.6 mm × 150 mm, 3 μm; Waters, USA). The column temperature was 40°C. The mobile phase, at 0.4 mL/min, consisted of water containing 0.1% formic acid (v/v, A) and methanol (B). The quantitative analysis gradient program was as follows: 0-1 min, 0 B; 1–6 min, 0–100% B; 6–12 min, 100% B; 12–12.1 min, 100%-0 B; 12.1–15 min, 0 B. The injection volume was 5 μL.
The mass spectrometer Q Exactive HF-X (Thermo Fisher Scientific Inc., USA) system was connected to the UHPLC system via heated electrospray ionization (HESI) and controlled by Xcalibur 4.2 software (Thermo Fisher) that was used for data collection and analysis. The mass spectrometer was operated in a negative ionization mode. The MS parameters were set as follows: probe heater temperature, 350°C; capillary temperature: 320°C; sheath gas (N2) flow rate: 30 arbs; auxiliary gas (N2) flow rate: 10 arbs; spray voltage: 3.2 kV (negative); S-Lens RF level: 55 V; scan mode: full MS (resolution 12000); scan range: m/z 150–1500. The most abundant ions in the spectra were selected for sensitive quantitation ([M-H]^−of chlorogenic acid, angoroside C, liquiritin, isoliquiritigenin, and IS, [M + COOH]^− of harpagide, swertiamarin, and sweroside). […]

[2] = Pharmacokinetic study in normal control (NC) mice after oral administration of SMYAD; type: in vivo, mouse; conditions: for AUC(0-inf) / AUC(0-t) / Cmax / Tmax / half-life: male, C57BL/6J
Procedure: as §1, §2, §3, §4
The mass spectrometer Q Exactive HF-X (Thermo Fisher Scientific Inc., USA) system was connected to the UHPLC system via heated electrospray ionization (HESI) and controlled by Xcalibur 4.2 software (Thermo Fisher) that was used for data collection and analysis. The mass spectrometer was operated in a negative ionization mode. The MS parameters were set as follows: probe heater temperature, 350°C; capillary temperature: 320°C; sheath gas (N2) flow rate: 30 arbs; auxiliary gas (N2) flow rate: 10 arbs; spray voltage: 3.2 kV (negative); S-Lens RF level: 55 V; scan mode: full MS (resolution 12000); scan range: m/z 150–1500. The most abundant ions in the spectra were selected for sensitive quantitation ([M-H]^−of chlorogenic acid, angoroside C, liquiritin, isoliquiritigenin, and IS, [M + COOH]^− of harpagide, swertiamarin, and sweroside).
The pharmacokinetic parameters, including maximum plasma concentration (Cmax), time corresponding to Cmax (Tmax), terminal elimination half-life (T1/2), area under plasma concentration-time curve (AUC0–t) and area under the plasma concentration-time curve from 0 to infinity time (AUC0–∞), apparent volume of distribution (Vz/F) and clearance (CLz/F), were calculated using the noncompartment model in DAS 2.0 software package (Shanghai, China). GraphPad prism 6.02 (GraphPad Software, USA) was used in the statistical analysis. All values are expressed as mean ± standard error. For the pharmacokinetic parameter values of the NC and AS groups, Student's t-test was employed for data comparisons. P values <0.05 were considered statistically significant.

[3] = male, ApoE−/− on a C57BL/6 background, mouse, in vivo, po, 35 g/kg/day
[4] = mouse, in vivo, po, 35 g/kg/day
[5] = AS mice, plasma, SMYAD intragastric 35 g/kg/d for seven days, mean ± SD, n = 5
[6] = male, ApoE−/− on a C57BL/6 background, mouse, po, 35 g/kg/day, AS mice, plasma, SMYAD intragastric 35 g/kg/d for seven days, mean ± SD, n = 5, read-out: AUC0–t
[7] = male, ApoE−/− on a C57BL/6 background, mouse, po, 35 g/kg/day, AS mice, plasma, SMYAD intragastric 35 g/kg/d for seven days, mean ± SD, n = 5, read-out: AUC0–∞
[8] = male, ApoE−/− on a C57BL/6 background, mouse, po, 35 g/kg/day, AS mice, plasma, SMYAD intragastric 35 g/kg/d for seven days, mean ± SD, n = 5, read-out: C max
[9] = male, ApoE−/− on a C57BL/6 background, mouse, po, 35 g/kg/day, AS mice, plasma, SMYAD intragastric 35 g/kg/d for seven days, mean ± SD, n = 5, read-out: t 1/2 (converted)
[10] = male, ApoE−/− on a C57BL/6 background, mouse, po, 35 g/kg/day, AS mice, plasma, SMYAD intragastric 35 g/kg/d for seven days, mean ± SD, n = 5, read-out: t max
[11] = NC mice, plasma, SMYAD intragastric 35 g/kg/d for seven days, mean ± SD, n = 5
[12] = mouse, po, 35 g/kg/day, NC mice, plasma, SMYAD intragastric 35 g/kg/d for seven days, mean ± SD, n = 5, read-out: AUC0–t
[13] = mouse, po, 35 g/kg/day, NC mice, plasma, SMYAD intragastric 35 g/kg/d for seven days, mean ± SD, n = 5, read-out: AUC0–∞
[14] = mouse, po, 35 g/kg/day, NC mice, plasma, SMYAD intragastric 35 g/kg/d for seven days, mean ± SD, n = 5, read-out: C max
[15] = mouse, po, 35 g/kg/day, NC mice, plasma, SMYAD intragastric 35 g/kg/d for seven days, mean ± SD, n = 5, read-out: t 1/2 (converted)
[16] = mouse, po, 35 g/kg/day, NC mice, plasma, SMYAD intragastric 35 g/kg/d for seven days, mean ± SD, n = 5, read-out: t max

| Structure (SMILES) | AUC(0-inf) [1, 3] | AUC(0-t) [1, 3] | Cmax [1, 3] | Tmax [1, 3] | half-life [1, 3] | Vz/F [1, 4] | AUC(0-inf) [2, 4] | AUC(0-t) [2, 4] | Cmax [2, 4] | Tmax [2, 4] | half-life [2, 4] | CLz/F [2, 4] | Vz/F [2, 4] | CLz/F [1, 5] | Vz/F [1, 5] | AUC(0-t) [1, 6] | AUC(0-inf) [1, 7] | Cmax [1, 8] | half-life [1, 9] | Tmax [1, 10] | also measured |
| --- | --- | --- | --- | --- | --- | --- | --- | --- | --- | --- | --- | --- | --- | --- | --- | --- | --- | --- | --- | --- | --- |
| C=C[C@H]1[C@H](O[C@@H]2O[C@H](CO)[C@@H](O)[C@H](O)[C@H]2O)OC=C2C(=O)OCC[C@H]21 [Sweroside, sweroside] | 8930 ± 2120 ng·h/mL | 7500 ± 1800 ng·h/mL | 1590 ± 497 ng/mL | 0.9 ± 0.64 h | 6.56 ± 2.75 h | 29.99 ± 14.26 L/mg | 7080 ± 390 ng·h/mL | 6980 ± 382 ng·h/mL | 1790 ± 369 ng/mL | 0.4 ± 0.3 h | 3.81 ± 0.56 h | 82700 ± 4670 µL/min/mg | 16.99 ± 3.78 L/mg |  |  |  |  |  |  |  | CLz/F [1, 4]: 4.29 ± 1.55 L/h/mg |
| O=C(/C=C/c1ccc(O)cc1)c1ccc(O)cc1O [Isoliquiritigenin, isoliquiritigenin] |  |  |  |  |  |  |  |  |  |  |  |  |  | 62.16 ± 23.35^∗ L/h/mg | 658.87 ± 555.51 L/mg | 502 ± 166 ng·h/mL | 654 ± 251 ng·h/mL | 135 ± 102 ng/mL | 6.01 ± 2.32 h | 0.95 ± 0.6 h | CLz/F ([1]; AS mice, plasma, SMYAD intragastric 35 g/kg/d for seven days, mean ± SD, n = 5, listed as isoliquiritigenin): 62.16 ± 23.35 L/h/mg; CLz/F [2, 11]: 558500 ± 73500 µL/min/mg; Vz/F [2, 11]: 198.37 ± 58.53 L/mg; AUC(0-t) [2, 12]: 1040 ± 144 ng·h/mL; AUC(0-inf) [2, 13]: 1060 ± 144 ng·h/mL; Cmax [2, 14]: 175 ± 49 ng/mL; half-life [2, 15]: 6.65 ± 1.31 h; Tmax [2, 16]: 1.9 ± 2.13 h |
| O=C1C[C@@H](c2ccc(O[C@@H]3O[C@H](CO)[C@@H](O)[C@H](O)[C@H]3O)cc2)Oc2cc(O)ccc21 [Liquiritin, liquiritin] | 482 ± 137 ng·h/mL | 408 ± 115 ng·h/mL | 67.6 ± 33.6 ng/mL | 0.75 ± 0.69 h | 13.5 ± 3.57 h | 887.57 ± 397.82 L/mg | 760 ± 334 ng·h/mL | 607 ± 229 ng·h/mL | 132 ± 57.1 ng/mL | 0.75 ± 0.63 h | 17 ± 3.43 h | 979000 ± 515700 µL/min/mg | 565.81 ± 116.60 L/mg |  |  |  |  |  |  |  | CLz/F ([1]; male, ApoE−/− on a C57BL/6 background, mouse, in vivo): 67.62 ± 33.62 L/h/mg |
| O=C(/C=C/c1ccc(O)c(O)c1)O[C@@H]1C[C@](O)(C(=O)O)C[C@@H](O)[C@H]1O [Chlorogenic acid, chlorogenic acid] |  |  |  |  |  |  |  |  |  |  |  |  |  | 13.49 ± 1.81^∗∗ L/h/mg | 302.49 ± 211.89 L/mg | 1560 ± 476 ng·h/mL | 2640 ± 323 ng·h/mL | 1130 ± 970 ng/mL | 21.6 ± 9.16 h | 0.25 h | CLz/F ([1]; AS mice, plasma, SMYAD intragastric 35 g/kg/d for seven days, mean ± SD, n = 5, listed as chlorogenic acid): 13.49 ± 1.81 L/h/mg; CLz/F [2, 11]: 506200 ± 126000 µL/min/mg; Vz/F [2, 11]: 247.01 ± 150.71 L/mg; AUC(0-t) [2, 12]: 1110 ± 419 ng·h/mL; AUC(0-inf) [2, 13]: 1260 ± 425 ng·h/mL; Cmax [2, 14]: 267 ± 72.4 ng/mL; half-life [2, 15]: 4.51 ± 1.1 h; Tmax [2, 16]: 1.13 ± 0.88 h |
